From BindingDB's records for doi:10.1016/s0960-894x(01)00185-8 (Dupont Pharmaceuticals, 2001)

Legend:
[1] = biological target: Cyclin-dependent kinase 2/G1/S-specific cyclin-E1 (Homo sapiens, UniProt P24941); assay: Kinase Inhibition Assay
Description: (§1) The enzyme was assayed with substrate GST-Rb in the presence of 50 mM ATP/[gamma-32P] ATP, and capturing the 32-P labeled reaction products on GSH-Sepharose beads. […] Use of 32P-labeled ATP allows this transfer to be monitored by scintillation counting.

[2] = biological target: Cyclin-dependent kinase 4/G1/S-specific cyclin-D1 (Homo sapiens, UniProt P11802); assay: Kinase Inhibition Assay
Sequence of Cyclin-dependent kinase 4/G1/S-specific cyclin-D1 (P11802 whole entry): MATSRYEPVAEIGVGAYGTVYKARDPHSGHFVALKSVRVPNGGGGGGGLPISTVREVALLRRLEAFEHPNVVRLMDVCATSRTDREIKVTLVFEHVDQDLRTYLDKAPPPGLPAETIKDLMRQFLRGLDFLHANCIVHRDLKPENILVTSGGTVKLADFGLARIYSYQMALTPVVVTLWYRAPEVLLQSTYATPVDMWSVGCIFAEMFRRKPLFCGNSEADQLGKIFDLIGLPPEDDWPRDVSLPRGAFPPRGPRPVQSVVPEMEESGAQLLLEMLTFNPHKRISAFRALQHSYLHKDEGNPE
Sequence of Cyclin-dependent kinase 4/G1/S-specific cyclin-D1 (P24385 whole entry, further chain): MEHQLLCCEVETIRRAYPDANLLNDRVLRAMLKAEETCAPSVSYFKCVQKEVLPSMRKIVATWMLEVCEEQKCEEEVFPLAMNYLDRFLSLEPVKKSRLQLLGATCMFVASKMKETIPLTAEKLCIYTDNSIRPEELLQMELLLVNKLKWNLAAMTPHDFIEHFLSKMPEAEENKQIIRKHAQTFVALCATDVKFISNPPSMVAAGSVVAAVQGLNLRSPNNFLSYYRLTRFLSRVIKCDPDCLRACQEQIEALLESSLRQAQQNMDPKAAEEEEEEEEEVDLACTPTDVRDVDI
Description: as §1

CC(C)(C)Nc1nc(C(F)(F)F)nc2ccc(-c3cccc(-c4cccnc4)c3)cc12 [N-tert-butyl-6-[3-(pyridin-3-yl)phenyl]-2-(trifluoromethyl)quinazolin-4-amine]
IC50 [1]: 1.2 µM | IC50 [2]: 8.3 µM
